# Measured values reported in publication PMC12143354, “Determining sex differences in aortic valve myofibroblast responses to drug combinations identified using a digital medicine platform” (Science Advances, 2025).
# Read-outs that look alike come from different tables or passages of the source.
# Experiments:
# male VICs [1] = conditions: for CC25 (percent cytotoxicity): male VICs on stiff gels, n = 3 gels; for CC1 / CC2: male VICs, stiff hydrogels, from dose response curves
# Method: (§1) After culture on hydrogels or TCPS, the spent drug-containing media were removed, and VICs were immersed in a 4% paraformaldehyde solution in PBS for 20 min and then permeabilized for 1 hour with 0.1% Triton X-100 (Thermo Fisher Scientific) in PBS. Cells were then blocked with 5% bovine serum albumin in PBS for 1 hour at room temperature or over the weekend at 4°C. […] Last, VICs were washed once with PBS and then stored in PBS at 4°C until imaging. Gel samples were imaged in situ using a Nikon Eclipse Ti2-E and analyzed using an automated MATLAB code to quantify the αSMA gradient mean intensities and caspase-3 intensities normalized to cell mask for each cell. A minimum of 100 cells were used per gel with multiple gels used per condition.
# (§2) Percent cytotoxicity was determined by designating each cell as alive or dead using caspase-3 intensity normalized to cell mask intensity, which was thresholded using a positive and negative control for cell death [10 nM staurosporine (Cell Signaling Technologies) or 1% FBS media]. The bottom value for every curve fit was set to 0, and the top value was constrained to a maximum of 100 to indicate the maximum possible effect of the drug. […] Absolute EC and CC values for % αSMA reduction and percent cytotoxicity were quantified using the top, bottom, EC50/CC50, and hillslope values estimated from the curve fits generated in GraphPad Prism (GraphPad Software Inc).
# female VICs [2] = conditions: for CC25 (percent cytotoxicity): female VICs on stiff gels, n = 3 gels; for CC1 / CC2: female VICs, stiff hydrogels, from dose response curves
# Method: as §1, §2
# male VICs [3] = test: percent αSMA GMI reduction by immunofluorescent staining, male VICs on TCPS; format: cell-based, pig; conditions: for reduction in αSMA GMI, initial screen: male VICs on TCPS, dosing range 10^-7 to 10^3 μM; for Percent αSMA reduction, Average: male VICs, TCPS, single drug at L2 dose, n = 3 wells
# Method: (§3) VICs were collected by aspirating off spent media, washing with PBS (Sigma-Aldrich) for 1 min, then incubating with 1× trypsin (Life Technologies) for 3 min. Trypsin was neutralized with an equal volume of 15% FBS growth media and centrifuged for 5 min at 0.2g. The media solution was then aspirated, and VICs were resuspended with 1 ml of 1% FBS media. VICs were counted with an automated hemocytometer to calculate the volume of cell solution to add to each well to seed at 6400 cells per well (20,000 cells/cm^2) for TCPS and hydrogel experiments. […] For each inhibitor, the nonlinear regression tool in Prism was used to estimate the response against the agonist by fitting the top, bottom, EC50/CC50, and hillslope to each dataset.
# male VICs [4] = test: percent αSMA GMI reduction, male VICs on stiff hydrogels; format: cell-based, pig; conditions: male VICs; for EC1 / EC2: from dose response curves; for Percent αSMA reduction, Average: n = 3-4 gels
# Method: (§4) Glass-bottom 96-well plates (Cellvis) were placed in an autoclave jar with a scintillation vial containing 100 μl of mercaptopropyltrimethoxysilane (MPTS; Sigma-Aldrich). The autoclave jar was then lightly sealed and placed inside an oven at 60°C for a minimum of 6 hours. The autoclave jar was opened in a chemical fume hood, and the vapor-deposited well plate was stored for up to 2 hours until ready for use. Eight-arm 20-kDa PEG-norbornene (PEG-Nb) was formed as outlined previously ([76]). A 7% (w/v) PEG-Nb hydrogel precursor solution was formed by combining phosphate-buffered saline (PBS), 20-kDa PEG-Nb at a 0.98:1 thiol-to-ene ratio, 5-kDa PEG-dithiol (Jenkem), CRGDS cell binding motif (Bachem), and lithium phenyl-2,4,6-trimethyl-benzoylphosphinate (Thermo Fisher Scientific). An EPMotion 5073l automated liquid handling system (Eppendorf) was used to pipet 7 μl of the hydrogel precursor solution into the center of each well of the vapor-deposited 96-well glass-bottom plate. The well plate with the hydrogel precursor solution was then stamped using a custom 96-well plate stamp, inverted, and cured under ultraviolet light at 10 mW/cm^2 for 3 min to induce gelation. The stamp was carefully removed by hand, and the newly formed gels were sterilized with a solution of 5% isopropyl alcohol (Thermo Fisher Scientific) in PBS for 20 min. Gels were then washed twice with PBS and stored in VIC media composed of Media199 (Life Technologies), 1% fetal bovine serum (FBS, Life Technologies), amphotericin B (1 μg/ml; Thermo Fisher Scientific), penicillin (50 U/ml; Sigma-Aldrich), and streptomycin (50 μg/ml; Sigma-Aldrich). Last, the hydrogels were placed in an incubator at 37°C with 5% carbon dioxide for up to 24 hours until experimental use.
# (§5) Media changes were performed every 24 to 48 hours until cells reached ~80% confluency. […] The media solution was then aspirated, and VICs were resuspended with 1 ml of 1% FBS media. VICs were counted with an automated hemocytometer to calculate the volume of cell solution to add to each well to seed at 6400 cells per well (20,000 cells/cm^2) for TCPS and hydrogel experiments. For all experiments, VICs were seeded with 1% FBS media containing the specified drug doses and incubated at 37°C with 5% carbon dioxide with media changes every 48 to 72 hours if needed.
# (§6) Drug stock solutions were discarded after two thaw cycles or after 10 months of storage. For all experiments, drug dilutions were calculated and added to VIC media to ensure that total DMSO levels remained below 1% for cytotoxicity and αSMA reduction curve fitting experiments and below 0.3% for drug combination experiments.
# as §1
# (§7) Curve fitting for VIC percent αSMA reduction and cytotoxicity was performed using GraphPad Prism 10 (GraphPad Software Inc). For each inhibitor, the nonlinear regression tool in Prism was used to estimate the response against the agonist by fitting the top, bottom, EC50/CC50, and hillslope to each dataset. After 2 days of culture, the percent αSMA reduction was calculated using the average αSMA gradient mean intensities of the control relative to the drug condition using Eq. 1 %αSMA reduction=100×(Control−Drug Condition/Control) (1)
# female VICs [5] = test: percent αSMA GMI reduction, female VICs on soft hydrogels; format: cell-based, pig; conditions: n = 3 gels
# Description: (§8) Last, we tested the ability of […]-designed combinations to prevent myofibroblast activation in VICs cultured on other substrates beyond stiff hydrogels. […] Six male-optimized combinations were effective in preventing male VIC myofibroblast activation (Fig. 7K). […] Single-drug monotherapies used in the top male and female drug combinations were confirmed to have a minimal effect on male and female VIC αSMA GMI on soft hydrogels (table S14). […] After aspirating off the spent media, VICs were resuspended in 5 ml of fresh 15% FBS media and seeded on T25 Falcon tissue culture-treated flasks (Thermo Fisher Scientific). […] VICs were collected by aspirating off spent media, washing with PBS (Sigma-Aldrich) for 1 min, then incubating with 1× trypsin (Life Technologies) for 3 min. Trypsin was neutralized with an equal volume of 15% FBS growth media and centrifuged for 5 min at 0.2g. The media solution was then aspirated, and VICs were resuspended with 1 ml of 1% FBS media. VICs were counted with an automated hemocytometer to calculate the volume of cell solution to add to each well to seed at 6400 cells per well (20,000 cells/cm^2) for TCPS and hydrogel experiments. […] For each inhibitor, the nonlinear regression tool in Prism was used to estimate the response against the agonist by fitting the top, bottom, EC50/CC50, and hillslope to each dataset.
# male VICs [6] = test: percent αSMA GMI reduction, male VICs on soft hydrogels; format: cell-based, pig; conditions: single drug at L2 dose, n = 3 gels
# Description: as §8
# [7] = ref (79) Irosustat, (80) Losartan, cited from earlier work
# female VICs [8] = test: percent αSMA GMI reduction by immunofluorescent staining, female VICs on TCPS; format: cell-based, pig; conditions: for reduction in αSMA GMI, initial screen: female VICs on TCPS, dosing range 10^-7 to 10^3 μM; for Percent αSMA reduction, Average: female VICs, TCPS, n = 3 wells
# Method: as §3
# female VICs [9] = test: percent αSMA GMI reduction, female VICs on stiff hydrogels; format: cell-based, pig; conditions: for EC1 / EC2: from dose response curves; for Percent αSMA reduction, Average: n = 3-4 gels
# Method: as §4, §5, §6, §1, §7
compound,measurement,setting,value
NS(=O)(=O)Oc1ccc2c3c(c(=O)oc2c1)CCCCC3 [Irosustat],CC25 (percent cytotoxicity),male VICs [1],125 µM
same,CC1,male VICs [1],48.5 µM
same,CC2,male VICs [1],58.7 µM
same,CC25 (percent cytotoxicity),female VICs [2],109 µM
same,CC1,female VICs [2],50.2 µM
same,CC2,female VICs [2],57.9 µM
same,"reduction in αSMA GMI, initial screen",male VICs [3],> 25%
same,"Percent αSMA reduction, Average",male VICs [3],-1.15%
same,EC1,male VICs [4],92.6 µM
same,EC2,male VICs [4],106.3 µM
same,"Percent αSMA reduction, Average",male VICs [4]; single drug at level 1 dose,0.84%
same,"Percent αSMA reduction, Average",male VICs [4]; single drug at level 2 dose,0.67%
same,"Percent αSMA reduction, Average",female VICs [5]; single drug at L1 dose,4.80%
same,"Percent αSMA reduction, Average",male VICs [6],-10.38%
same,Cmax,"[7]; read-out: 5% Cmax, 5% of Cmax from FDA documents and clinical studies",10.6 nM
same,Cmax,"[7]; read-out: 10% Cmax, 10% of Cmax from FDA documents and clinical studies",21.2 nM
same,"reduction in αSMA GMI, initial screen",female VICs [8],> 25%
same,"Percent αSMA reduction, Average",female VICs [8]; single drug at L1 dose,1.88%
same,EC1,female VICs [9],74.4 µM
same,EC2,female VICs [9],84.7 µM
same,"Percent αSMA reduction, Average",female VICs [9]; single drug at level 1 dose,9.62%
same,"Percent αSMA reduction, Average",female VICs [9]; single drug at level 2 dose,-0.55%
Fc1ccc(Cl)cc1-c1nc(Nc2ccncc2)c2nccnc2n1 [SD-208],CC25 (percent cytotoxicity),male VICs [1],58.9 µM
same,CC1,male VICs [1],26.6 µM
same,CC2,male VICs [1],31.1 µM
same,CC25 (percent cytotoxicity),female VICs [2],70.1 µM
same,CC1,female VICs [2],34.8 µM
same,CC2,female VICs [2],40.1 µM
same,"reduction in αSMA GMI, initial screen",male VICs [3],> 25%
same,"Percent αSMA reduction, Average",male VICs [3],7.80%
same,EC1,male VICs [4],0.0582 µM
same,EC2,male VICs [4],0.188 µM
same,"Percent αSMA reduction, Average",male VICs [4]; single drug at level 1 dose,14.60%
same,"Percent αSMA reduction, Average",male VICs [4]; single drug at level 2 dose,0.63%
same,"Percent αSMA reduction, Average",female VICs [5]; single drug at L2 dose,9.37%
same,"Percent αSMA reduction, Average",male VICs [6],5.58%
same,"reduction in αSMA GMI, initial screen",female VICs [8],> 25%
same,"Percent αSMA reduction, Average",female VICs [8]; single drug at L2 dose,3.05%
same,EC1,female VICs [9],0.0061 µM
same,EC2,female VICs [9],0.0275 µM
same,"Percent αSMA reduction, Average",female VICs [9]; single drug at level 1 dose,4.19%
same,"Percent αSMA reduction, Average",female VICs [9]; single drug at level 2 dose,8.81%
O=C(COCC(=O)Nc1ccc(Cl)cc1C(=O)O)Nc1cccc(-c2ccoc2)c1 [TM5441],CC25 (percent cytotoxicity),male VICs [1],51.3 µM
same,CC1,male VICs [1],18.9 µM
same,CC2,male VICs [1],21.9 µM
same,CC25 (percent cytotoxicity),female VICs [2],191 µM
same,CC1,female VICs [2],19.7 µM
same,CC2,female VICs [2],31.1 µM
same,"reduction in αSMA GMI, initial screen",male VICs [3],> 25%
same,"Percent αSMA reduction, Average",male VICs [3],18.36%
same,EC1,male VICs [4],4.96 µM
same,EC2,male VICs [4],9.3 µM
same,"Percent αSMA reduction, Average",male VICs [4]; single drug at level 1 dose,-1.46%
same,"Percent αSMA reduction, Average",male VICs [4]; single drug at level 2 dose,2.18%
same,"Percent αSMA reduction, Average",female VICs [5]; single drug at L2 dose,17.16%
same,"Percent αSMA reduction, Average",male VICs [6],13.16%
same,"reduction in αSMA GMI, initial screen",female VICs [8],> 25%
same,"Percent αSMA reduction, Average",female VICs [8]; single drug at L2 dose,8.37%
same,EC1,female VICs [9],24.8 µM
same,EC2,female VICs [9],33.6 µM
same,"Percent αSMA reduction, Average",female VICs [9]; single drug at level 1 dose,1.52%
same,"Percent αSMA reduction, Average",female VICs [9]; single drug at level 2 dose,-7.64%
